Assay results as given in paper PMC8026479 (Cancer Chemotherapy and Pharmacology, 2021).
Where two headings read alike, the source gives them in different places.

Assays:
[1] = Population PK model with allometric scaling of preclinical and human PK data; design: species or system mouse, rat, dog; conditions: estimated
Text: Owing to the invasive nature of the PD marker collection (i.e. bone marrow aspiration), a semi-mechanistic PK/PD model based on animal PK/PD data and human PK data was developed to guide the selection of an optimal dose level for bone marrow aspiration in humans during dose escalation in the Phase I first-in-human study. The model was constructed using PK data from four species (mouse, rat, dog, and human) and PD data from three species (mouse, rat, and dog; Online Resources 1 and 2).
The model was constructed in two stages. First, preclinical PK data (e.g. doses, routes, and schedule of administration, observed concentrations) were compiled and modeled by allometric scaling. A sequential PK/PD modeling approach (population PK parameters and data approach) was then employed in which a semi-mechanistic PD model with various physiological compartments was created, and specific assumptions entered (Online Resource 3). Traditional forward addition/backward elimination was used for PK modeling. […] Many parameters in this complex model could not be estimated and were fixed either to the literature values or values selected on the basis of discussions with domain experts and sensitivity analysis. In preclinical animal models, the PD analysis modeled bone marrow cells positive for 5′-ethynyl-2′-deoxyuridine (EdU) and peripheral neutrophil counts simultaneously. Although the preclinical animal models could determine the G1 phase, they could not differentiate S, G2, and M phases; cells in these phases will be referred to as “cycling” throughout this manuscript.
Online Resource 1 List of studies used in PK and PD models
Data set Species Administration route Endpoint
BM bone marrow, EdU 5’-ethynyl-2’-deoxyuridine, IP intraperitoneal, IV intravenous, PD pharmacodynamics , PK
pharmacokinetics , PMN polymorphonuclear cell
Online Resource 2 Brief description of animal studies used in PK and PD models
Preclinical pharmacokinetic (PK)/toxicokinetic studies were conducted in mice, rats, and dogs. Data from eight
studies in four species, with a total of 1628 observations from 191 individuals, were used for PK/pharmacodynamic
(PD) modeling. Administration routes included oral, intravenous (IV), and intraperitoneal (IP). The designs of these
studies are described briefly below:
samples were collected from pre dose up to 48 h post dose. In rat toxicology studies, rats received 7-day
PK samples were collected
from pre dose up to 24 h post dose on Day 1 and Day 7.
samples were collected from pre dose up to 30 h post dose.
IV infusion. […]
Online Resource 3 PK/PD model parameters and assumptions
PK model parameters for trilacicliba
Ka (/h) 20.0 (FIXED) Assumptionb
Bioavailability (oral, mouse) 0.62 Estimated
Intercompartment rate constant 15.94 Estimated
Intercompartment clearance K42 0.29 Estimated
Allometric exponent for V 1.00 Estimated
Allometric exponent for CL 1.00 (FIXED) Assumptionc
Additive error 2.00 (FIXED) Assumptiond
Proportional error 0.32 Estimated
PD model parameters for trilaciclib and
Rate constant for BM precursor G 0.04 (FIXED) Assumption e
Rate constant for neutrophils 3.24*E-2 (FIXED) Assumption f
Max effect of G1T28 in the E max 1.00 (FIXED) Assumption g
Concentration of G1T28 with 5.90 Estimated
Feedback slope (/h) 1.00*E-6 (FIXED) Assumptionh
Scale for neutrophils in mice 150 Estimated
Scale for neutrophils in dogs 848 Estimated
EC50 as fraction of baseline value 2.00 Estimated
of persistence effect . Effect is on
transition of S phase cells to G1
Rate constant for stem cell G to 0.51 Estimated
Residual error variance 0.73 Estimated
aPK model parameters for 5 -FU were obtained from the literature
K a could not be estimated and
cThe allometric exponent for CL was estimated to be 0.945 from an earlier model during the model development
process and was fixed to 1 .00 for the purpose of model simplification to avoid overparameterization
dThe additive error was fixed to 20% of the assay LLOQ (10 ng/mL) to decrease the number of parameters to fit […]

[2] = tested on: murine HSCs / total bone marrow cycling cells; design: method as in PMID 28446688; conditions: mouse, at concentrations giving maximum decrease in total bone marrow cycling cells; cited from earlier work
[3] = Study G1T28-1-01 plasma PK, first-in-human single dose; type: in vivo; conditions: for Vd: read-out: Vz
[4] = Study G1T28-02 Part 1 plasma PK (with E/P); type: in vivo, human; conditions: ES-SCLC + E/P; for Vd: read-out: Vz; for Tmax: range; for AUC: read-out: AUCtau (AUC0-inf, footnote a)
Text: G1T28-02 (NCT02499770) was a multicentre Phase Ib/IIa study in patients with newly diagnosed ES-SCLC [5]. Eligible patients were aged ≥ 18 years and had histologically or cytologically confirmed ES-SCLC, measurable disease per Response Evaluation Criteria in Solid Tumors (RECIST) version 1.1, an Eastern Cooperative Oncology Group (ECOG) performance status of 0–2, and adequate organ function. […] In the dose-finding Part 1 portion, blood samples for PK analysis were collected at prespecified time points on Cycle 1 Day 1 and Cycle 1 Day 3 (200 mg/m^2 cohort: all patients; 240 mg/m^2 cohort: optional).

[5] = both sexes, human, plasma, iv, 6 mg/m2, healthy volunteers, single 30-min IV 6 mg/m2 (n = 3), mean
[6] = both sexes, human, plasma, iv, 12 mg/m2, healthy volunteers, single 30-min IV 12 mg/m2 (n = 3), mean
[7] = both sexes, human, plasma, iv, 24 mg/m2, healthy volunteers, single 30-min IV 24 mg/m2 (n = 3), mean
[8] = both sexes, human, plasma, iv, 49 mg/m2, healthy volunteers, single 30-min IV 49 mg/m2 (n = 3), mean
[9] = both sexes, human, plasma, iv, 96 mg/m2, healthy volunteers, single 30-min IV 96 mg/m2 (n = 6), mean
[10] = both sexes, human, plasma, healthy volunteers, single 30-min IV 6 mg/m2 (n = 3), mean
[11] = both sexes, human, plasma, healthy volunteers, single 30-min IV 96 mg/m2 (n = 6), mean
[12] = both, human, plasma, intravenous, […]2, healthy volunteers, BED cohort […]2 (n = 12), mean
[13] = both, human, plasma, intravenous, […]2, healthy volunteers, both […]2 cohorts (n = 18), mean
[14] = both, human, plasma, iv, […]2, healthy volunteers, single 30-min IV […]2 SAD cohort (n = 6), mean
[15] = healthy volunteers, single 30-min IV 6 mg/m2 (n = 3), mean
[16] = healthy volunteers, single 30-min IV 96 mg/m2 (n = 6), mean
[17] = 200 mg/m2, Cycle 1 Day 3 (n = 8), mean
[18] = 240 mg/m2, Cycle 1 Day 1 (n = 1)
[19] = human, plasma, intravenous, 200 mg/m2, Cycle 1 Day 1 (n = 8), mean
[20] = human, plasma, intravenous, 200 mg/m2, Cycle 1 Day 3 (n = 8), mean
[21] = human, plasma, intravenous, 240 mg/m2, Cycle 1 Day 1 (n = 1)
[22] = human, plasma, intravenous, 240 mg/m2, Cycle 1 Day 3 (n = 1)

bioavailability ([1]; 150 mg/kg, oral, mouse): 62% | Intercompartment clearance K24 [1]: 2.03 h⁻¹ | Intercompartment clearance K32 [1]: 4.42 h⁻¹ | Intercompartment clearance K42 [1]: 0.29 h⁻¹ | Intercompartment rate constant K23 [1]: 15.94 h⁻¹ | clearance ([1]; mouse, rat, dog, human, three-compartment model, allometric scaling, read-out: CL, PK model (converted)): 46.2 mL/min/kg | Vd ([1]; mouse, rat, dog, human, three-compartment model, allometric scaling, read-out: V (central volume of distribution), PK model): 1.32 L/kg | clearance [3, 5]: 3130 mL/min | Vd [3, 5]: 1460 L | clearance [3, 6]: 2700 mL/min | Vd [3, 6]: 1770 L | clearance [3, 7]: 2930 mL/min | Vd [3, 7]: 2310 L | clearance [3, 8]: 2930 mL/min | Vd [3, 8]: 3430 L | clearance [3, 9]: 2370 mL/min | Vd [3, 9]: 3050 L | Tmax [3, 10]: 0.25 h | half-life [3, 10]: 5.32 h | half-life ([3]; both sexes, human, plasma, healthy volunteers, single 30-min IV 12 mg/m2 (n = 3), mean): 7.62 h | AUC(0-inf) ([3]; both sexes, human, plasma, healthy volunteers, single 30-min IV 12 mg/m2 (n = 3), mean, read-out: AUC0-inf): 143 ng·h/mL | half-life ([3]; both sexes, human, plasma, healthy volunteers, single 30-min IV 24 mg/m2 (n = 3), mean): 9.28 h | AUC(0-inf) ([3]; both sexes, human, plasma, healthy volunteers, single 30-min IV 24 mg/m2 (n = 3), mean, read-out: AUC0-inf): 279 ng·h/mL | Cmax ([3]; both sexes, human, plasma, healthy volunteers, single 30-min IV 24 mg/m2 (n = 3), mean, read-out: Cmax): 255 ng/mL | half-life ([3]; both sexes, human, plasma, healthy volunteers, single 30-min IV 49 mg/m2 (n = 3), mean): 12.9 h | Tmax [3, 11]: 0.37 h | half-life [3, 11]: 14.7 h | Tmax ([3]; both, human, plasma, intravenous, […]2): 0.47 h | clearance [3, 12]: 2100 mL/min | Vd [3, 12]: 2640 L | clearance [3, 13]: 2050 mL/min | Vd [3, 13]: 2580 L | half-life ([3]; both, human, plasma, iv, […]2): 14.5 h | clearance [3, 14]: 1950 mL/min | Vd [3, 14]: 2460 L | AUC(0-inf) [3, 15]: 66.6 ng·h/mL | Cmax [3, 15]: 50.4 ng/mL | Cmax ([3]; healthy volunteers, single 30-min IV 12 mg/m2 (n = 3), mean): 119 ng/mL | AUC(0-inf) ([3]; healthy volunteers, single 30-min IV 49 mg/m2 (n = 3), mean): 518 ng·h/mL | AUC(0-inf) [3, 16]: 1341 ng·h/mL | Cmax [3, 16]: 910 ng/mL | Cmax [4, 17]: 1620 ng/mL | T1/2 [4, 17]: 9.12 h | AUC(0-inf) [4, 18]: 2280 ng·h/mL | Cmax [4, 18]: 1570 ng/mL | clearance [4, 19]: 2500 mL/min | AUC(0-inf) ([4]; human, plasma, intravenous, 200 mg/m2, Cycle 1 Day 1 (n = 8), mean, read-out: AUC0-inf): 2560 ng·h/mL | Cmax ([4]; human, plasma, intravenous, 200 mg/m2, Cycle 1 Day 1 (n = 8), mean, read-out: Cmax): 1240 ng/mL | Vd [4, 19]: 1700 L | Tmax ([4]; human, plasma, intravenous, 200 mg/m2, Cycle 1 Day 1 (n = 8)): 0.45 to 0.98 h | clearance [4, 20]: 2230 mL/min | AUC [4, 20]: 3110 ng·h/mL | Vd [4, 20]: 1770 L | Tmax ([4]; human, plasma, intravenous, 200 mg/m2, Cycle 1 Day 3 (n = 8)): 0.47 to 1 h | clearance [4, 21]: 3850 mL/min | half-life [4, 21]: 2.91 h | Vd [4, 21]: 967 L | clearance [4, 22]: 3000 mL/min | half-life [4, 22]: 4.03 h | AUC [4, 22]: 2960 ng·h/mL | Cmax ([4]; human, plasma, intravenous, 240 mg/m2, Cycle 1 Day 3 (n = 1), read-out: Cmax): 2260 ng/mL | Vd [4, 22]: 1050 L
Structure (SMILES): CN1CCN(c2ccc(Nc3ncc4cc5n(c4n3)C3(CCCCC3)CNC5=O)nc2)CC1 [trilaciclib]
HSPCs arrested in the G1 phase [2]: ~100%
